# pEC50: −log10 of the molar value.
# How the values were obtained:
# [1] = biological target: T1, KCNQ2/3 channels (Homo sapiens, UniProt O43525+O43526); experiment: Two-electrode voltage-clamp of KCNQ2/3 channels expressed in Xenopus laevis oocytes; type: cell-based; conditions: for Non-normalized tail current V0.5 / Normalized tail current V0.5 / Slope: KCNQ2/3; for effect on voltage dependence of KCNQ2/3 activation (initial screen): tail currents at −30 mV
# Text: (§1) cRNA transcripts encoding human KCNA1, KCNQ1, KCNQ2, KCNQ3, KCNQ4, or KCNQ5 were generated by in vitro transcription using the T7 polymerase message machine kit (Thermo Fisher Scientific), after vector linearization, from cDNA sub-cloned into plasmids incorporating X. laevis β-globin 5′ and 3′ UTRs flanking the coding region to enhance translation and cRNA stability. cRNA was quantified by spectrophotometry. Mutant cDNAs were generated by site-directed mutagenesis using a QuikChange kit according to manufacturer’s protocol (Stratagene, San Diego, CA) and corresponding cRNAs prepared as above. Defolliculated stage V and VI X. laevis oocytes (Ecocyte Bioscience, Austin, TX) were injected with Kv channel α subunit cRNAs (10 ng total per oocyte). Oocytes were incubated at 16 °C in Barth’s saline solution (Ecocyte) containing penicillin and streptomycin, with daily washing, for 3–5 days prior to two-electrode voltage-clamp (TEVC) recording.
# (§2) Oocytes were placed in a small-volume oocyte bath (Warner) and viewed with a dissection microscope. Chemicals were sourced from Sigma. Bath solution was (in mM): 96 NaCl, 4 KCl, 1 MgCl2, 1 CaCl2, 10 HEPES (pH 7.6). […] MTX (DMSO), sorbic acid (ethanol), and glutaconic acid (molecular grade H2O) were stored at −20 °C as 1 M stocks. Oleamide was stored as a 1 mM stock in ethanol at 4 °C. Palmitic acid was conjugated with bovine serum albumin as a 1 mM stock and stored at −20 °C. All compounds were diluted to working concentrations each experimental day. All compounds were introduced to the recording bath via gravity perfusion at a constant flow of 1 ml/min for 3 min prior to recording. Pipettes were of 1–2 MΩ resistance when filled with 3 M KCl. Currents were recorded in response to pulses between −80 and +40 mV at 20 mV intervals, or a single pulse to +40 mV, from a holding potential of −80 mV, to yield current–voltage relationships, current magnitude, and for quantifying activation rate. TEVC data analysis was performed with Clampfit10.2 (Molecular Devices) and Graphpad Prism software (GraphPad, San Diego, CA, USA); values are stated as mean ± SEM. Normalized tail currents were plotted versus prepulse voltage and fitted with a single Boltzmann function:1 g=A1-A2/1+expV12-Vy+A2, where g is the normalized tail conductance, A1 is the initial value at −∞, A2 is the final value at +∞, V1/2 is the half-maximal voltage of activation, and Vs the slope factor. Activation and deactivation kinetics were fitted with single-exponential functions.
# [2] = biological target: KCNQ2-W236L/KCNQ3-W265L channels (Homo sapiens, UniProt O43525+O43526, W236L/W265L); experiment: Two-electrode voltage-clamp of W236L-Q2/W265L-Q3 mutant channels in Xenopus oocytes; type: cell-based; conditions: 100 µM
# Text: as §1, §2
# [3] = biological target: T1, KCNQ2/3 channels; conditions: high affinity partial agonist; previously found; cited from earlier work
# [4] = biological target: KCNA1 (Homo sapiens, UniProt Q09470); experiment: Two-electrode voltage-clamp of KCNA1 in Xenopus oocytes; type: cell-based
# Text: as §1
# as §2, with “TEVC data analysis was performed with Clampfit10.2 (Molecular Devices) and Graphpad Prism software (GraphPad, San Diego, CA, USA); values are stated as mean ± SEM. Normalized tail currents were plotted versus prepulse voltage and fitted with a single Boltzmann function:1 g=A1-A2/1+expV12-Vy+A2, where g is the normalized tail conductance, A1 is the initial value at −∞, A2 is the final value at +∞, V1/2 is the half-maximal voltage of activation, and Vs the slope factor. Activation and deactivation kinetics were fitted with single-exponential functions.” left out
# [5] = test system: pentylene tetrazole-induced seizures; experiment: PTZ chemoconvulsant assay; type: in vivo, mouse; conditions: mice
# Text: We compared anticonvulsant activities of test compounds in male C57BL/6 mice (Charles River) aged 2–3 months. Mice were housed and used according to the recommendations in the Guide for the Care and Use of Laboratory Animals of the National Institutes of Health (NIH Publication, 8th edition, 2011). The study protocol was approved by the Institutional Animal Care and Use Committee of University of California, Irvine, which confirmed that all relevant ethical regulations were adhered to. Chemicals were sourced from Sigma (St. Louis, MO, USA) . A pentylene tetrazole (PTZ) chemoconvulsant assay was used[54]. […] Following the PTZ injection, mice were caged individually and an observer (GWA) blinded to the drug used recorded, over 20 min, clonic and tonic seizure incidence, and seizure-related mortality.
# All values are expressed as mean ± SEM. Chi-squared analysis was used to compare seizure-related mortality in mice. One-way ANOVA was applied for all other tests; if multiple comparisons were performed, a post-hoc Tukey’s HSD test was performed following ANOVA. All p-values were two-sided. Statistical significance was defined as p < 0.05.
# Chain of KCNA1 (Q09470 whole entry): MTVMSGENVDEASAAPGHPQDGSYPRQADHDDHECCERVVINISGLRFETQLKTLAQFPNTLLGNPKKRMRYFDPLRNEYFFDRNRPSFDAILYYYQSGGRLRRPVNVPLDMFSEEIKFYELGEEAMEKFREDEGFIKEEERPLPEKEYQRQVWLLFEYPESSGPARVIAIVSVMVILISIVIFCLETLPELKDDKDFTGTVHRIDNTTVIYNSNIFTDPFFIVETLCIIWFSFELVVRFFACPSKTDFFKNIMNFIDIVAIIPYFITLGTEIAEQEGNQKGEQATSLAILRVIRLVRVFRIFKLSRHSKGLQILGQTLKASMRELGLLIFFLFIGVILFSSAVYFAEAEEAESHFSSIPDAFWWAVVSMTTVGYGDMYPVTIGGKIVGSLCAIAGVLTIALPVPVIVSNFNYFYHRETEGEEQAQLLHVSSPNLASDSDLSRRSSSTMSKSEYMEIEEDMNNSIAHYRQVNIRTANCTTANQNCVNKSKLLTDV
smiles,measurement,setting,value
C=CCCCCC [1-Heptene],Non-normalized tail current V0.5,[1]; 100 µM,-41.9 ± 4.9 mV
same,Normalized tail current V0.5,[1]; 100 µM,-41.8 ± 0.9 mV
same,Slope,[1]; 100 µM,5.8 ± 1.5 mV
"Oc1ccccc1S [2-Mercaptophenol, 2-mercaptophenol]",effect on voltage dependence of KCNQ2/3 activation (initial screen),[1]; 100 µM,positive-shifted
same,effect of 2-mercaptophenol on ability of MTX to activate KCNQ2/3,[1]; 2-mercaptophenol 100 µM with MTX 30 µM,did not alter
same,Non-normalized tail current V0.5,[1]; 0.01 µM,-37.2 ± 3.7 mV
same,Normalized tail current V0.5,[1]; 0.01 µM,-37.7 ± 1.5 mV
same,Slope,[1]; 0.01 µM,7.4 ± 1.6 mV
same,Non-normalized tail current V0.5,[1]; 0.1 µM,-40.9 ± 3.2 mV
same,Normalized tail current V0.5,[1]; 0.1 µM,-43.4 ± 3.6 mV
same,Slope,[1]; 0.1 µM,5.4 ± 1.2 mV
same,Non-normalized tail current V0.5,[1]; 1 µM,-43.2 ± 2.6 mV
same,Normalized tail current V0.5,[1]; 1 µM,-43.6 ± 0.8 mV
same,Slope,[1]; 1 µM,6.4 ± 0.9 mV
same,Non-normalized tail current V0.5,[1]; 10 µM,-43.2 ± 2.8 mV
same,Normalized tail current V0.5,[1]; 10 µM,-43.7 ± 1.1 mV
same,Slope,[1]; 10 µM,7.4 ± 1.1 mV
same,Non-normalized tail current V0.5,[1]; 100 µM,-34.5 ± 4.6 mV
same,Normalized tail current V0.5,[1]; 100 µM,-29.5 ± 2.5 mV
same,Slope,[1]; 100 µM,5.0 ± 1.2 mV
same,Non-normalized tail current V0.5,[1]; 300 µM,-22.5 ± 7.2 mV
same,Normalized tail current V0.5,[1]; 300 µM,-19.8 ± 1.4 mV
same,Slope,[1]; 300 µM,8.3 ± 0.9 mV
same,concentration at which KCNQ2/3 inhibition begins,[1]; activating at lower concentrations,~ 100 µM
same,sensitivity of KCNQ2-W236L/KCNQ3-W265L channels,[2],insensitive
same,Non-normalized tail current V0.5,[2]; W236L-Q2/W265L-Q3,-53.8 ± 1.7 mV
same,Normalized tail current V0.5,[2]; W236L-Q2/W265L-Q3,-51.0 ± 4.2 mV
CCC1=C(O)C(=O)CC1 [3-ethyl-2-hydroxy-2-cyclopenten-1-one],Non-normalized tail current V0.5,[1]; 100 µM,-40.1 ± 1.9 mV
same,Normalized tail current V0.5,[1]; 100 µM,-41.0 ± 0.9 mV
same,Slope,[1]; 100 µM,5.1 ± 0.9 mV
"NCC(O)CC(=O)O (stereo not drawn) [GABOB, γ-amino-β-hydroxybutyric acid, reference compound]",effect of GABOB on IVA effects on KCNQ2/3,[1]; GABOB 100 µM with IVA 500 µM,highly effective at competing out effects of IVA
same,effect of GABOB on MTX effects on KCNQ2/3,[1]; GABOB 100 µM with MTX 30 µM,only partially diminishes
same,pEC50,[3],6.92
"O=C(O)/C=C/CC(=O)O [Glutaconic Acid, glutaconic acid]",effect on voltage dependence of KCNQ2/3 activation (initial screen),[1]; 100 µM,negative-shifted
same,Non-normalized tail current V0.5,[1]; 0.1 µM,-40.4 ± 1.5 mV
same,Normalized tail current V0.5,[1]; 0.1 µM,-41.2 ± 1.4 mV
same,Slope,[1]; 0.1 µM,4.4 ± 3.7 mV
same,Non-normalized tail current V0.5,[1]; 1 µM,-41.5 ± 1.3 mV
same,Normalized tail current V0.5,[1]; 1 µM,-42.7 ± 1.7 mV
same,Slope,[1]; 1 µM,4.8 ± 2.4 mV
same,Non-normalized tail current V0.5,[1]; 10 µM,-42.1 ± 3.8 mV
same,Normalized tail current V0.5,[1]; 10 µM,-42.9 ± 2.2 mV
same,Slope,[1]; 10 µM,5.4 ± 2.3 mV
same,Non-normalized tail current V0.5,[1]; 100 µM,-40.8 ± 3.8 mV
same,Normalized tail current V0.5,[1]; 100 µM,-40.7 ± 1.2 mV
same,Slope,[1]; 100 µM,5.4 ± 1.7 mV
same,Non-normalized tail current V0.5,[1]; 500 µM,-38.5 ± 5.4 mV
same,Normalized tail current V0.5,[1]; 500 µM,-37.7 ± 0.9 mV
same,Slope,[1]; 500 µM,6.8 ± 0.9 mV
"CC(C)CC(=O)O [IVA, isovaleric acid]",Slope,"[4]; KCNA1 (table title), 500 µM",6.9 ± 1.1 mV
same,effect on KCNA1 currents,"[4]; MTX concentration not given, IVA 500 µM",did not alter currents
same,clonic seizure incidence,[5]; 10 mg/kg i.p. alone,neither compound reduced clonic seizures alone
same,clonic seizure incidence,"[5]; 20 mg/kg i.p., 30 min before 80 mg kg−1 PTZ",no effect
same,suppression of PTZ-induced tonic seizures,[5]; individually,ineffective

# From paper PMC6155021, “Ancient and modern anticonvulsants act synergistically in a KCNQ potassium channel binding pocket” (Nature Communications, 2018)
